Experimental data taken from PubChem BioAssay (NCI).
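The compound was tested at five concentrations on cells cultured in 96-well plates, with a 48-hour exposure period. At the TGI there is no net growth.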

Legend:
Test in all cases: inhibition of tumour cell growth, NCI panel, 48 h
MOLT-4 leukemia = system: MOLT-4 leukemia
CAKI-1 renal = system: CAKI-1 renal
DMS 273 small cell lung = system: DMS 273 small cell lung
HT29 colon = system: HT29 colon
SNB-75 CNS = system: SNB-75 CNS
HL-60(TB) leukemia = system: HL-60(TB) leukemia
OVCAR-3 ovarian = system: OVCAR-3 ovarian
SK-MEL-5 melanoma = system: SK-MEL-5 melanoma
KM20L2 colon = system: KM20L2 colon
TK-10 renal = system: TK-10 renal
UACC-62 melanoma = system: UACC-62 melanoma
A549 NSCLC = system: A549 NSCLC
NCI-H23 lung = system: NCI-H23 lung
A498 renal = system: A498 renal
IGROV1 ovarian = system: IGROV1 ovarian
K-562 leukemia = system: K-562 leukemia
SF-539 CNS = system: SF-539 CNS
CCRF-CEM leukemia = system: CCRF-CEM leukemia
SK-OV-3 ovarian = system: SK-OV-3 ovarian
LXFL 529 NSCLC = system: LXFL 529 NSCLC
KM12 colon = system: KM12 colon
SF-268 CNS = system: SF-268 CNS
NCI-H460 lung = system: NCI-H460 lung
RXF 393 renal = system: RXF 393 renal
DMS 114 small cell lung = system: DMS 114 small cell lung
SF-295 CNS = system: SF-295 CNS
SW-620 colon = system: SW-620 colon
RPMI-8226 leukemia = system: RPMI-8226 leukemia
UACC-257 melanoma = system: UACC-257 melanoma
SK-MEL-28 melanoma = system: SK-MEL-28 melanoma
OVCAR-4 ovarian = system: OVCAR-4 ovarian
OVCAR-8 ovarian = system: OVCAR-8 ovarian
UO-31 renal = system: UO-31 renal
HCT-15 colon = system: HCT-15 colon
HOP-18 NSCLC = system: HOP-18 NSCLC
SN12C renal = system: SN12C renal
M14 melanoma = system: M14 melanoma
SNB-19 CNS = system: SNB-19 CNS
EKVX NSCLC = system: EKVX NSCLC
ACHN renal = system: ACHN renal
SNB-78 CNS = system: SNB-78 CNS
COLO 205 colon = system: COLO 205 colon
HCT-116 colon = system: HCT-116 colon
NCI-H522 lung = system: NCI-H522 lung
U251 CNS = system: U251 CNS
M19-MEL melanoma = system: M19-MEL melanoma
SR leukemia = system: SR leukemia
MALME-3M melanoma = system: MALME-3M melanoma
HOP-62 NSCLC = system: HOP-62 NSCLC
HOP-92 NSCLC = system: HOP-92 NSCLC
786-0 renal = system: 786-0 renal
NCI-H226 lung = system: NCI-H226 lung
LOX IMVI melanoma = system: LOX IMVI melanoma
RXF-631 renal = system: RXF-631 renal
OVCAR-5 ovarian = system: OVCAR-5 ovarian
DLD-1 colon = system: DLD-1 colon

For `COc1ccc(/C=N/N=C(N)N)c(C(=O)O)c1OC`, the TGI (MOLT-4 leukemia) was > 100 µM, the TGI (CAKI-1 renal) was > 100 µM and the TGI (DMS 273 small cell lung) was > 100 µM. The TGI (HT29 colon) was > 100 µM, the TGI (SNB-75 CNS) was > 100 µM and the TGI (HL-60(TB) leukemia) was > 100 µM. For the same compound, the TGI (OVCAR-3 ovarian) was > 100 µM, the TGI (SK-MEL-5 melanoma) was > 100 µM and the TGI (KM20L2 colon) was > 100 µM. For the same compound, the TGI (TK-10 renal) was > 100 µM, the TGI (UACC-62 melanoma) was > 100 µM and the TGI (A549 NSCLC) was > 100 µM. The TGI (NCI-H23 lung) was > 100 µM, the TGI (A498 renal) was > 100 µM and the TGI (IGROV1 ovarian) was > 10 µM. The TGI (K-562 leukemia) was > 100 µM, the TGI (SF-539 CNS) was > 100 µM and the TGI (CCRF-CEM leukemia) was > 100 µM. The TGI (SK-OV-3 ovarian) was > 100 µM, the TGI (LXFL 529 NSCLC) was > 100 µM and the TGI (KM12 colon) was > 100 µM. For the same compound, the TGI (SF-268 CNS) was > 100 µM, the TGI (NCI-H460 lung) was > 100 µM and the TGI (RXF 393 renal) was > 100 µM. The TGI (DMS 114 small cell lung) was > 100 µM, the TGI (SF-295 CNS) was > 100 µM and the TGI (SW-620 colon) was > 100 µM. The TGI (RPMI-8226 leukemia) was > 100 µM, the TGI (UACC-257 melanoma) was > 100 µM and the TGI (SK-MEL-28 melanoma) was > 100 µM. For the same compound, the TGI (OVCAR-4 ovarian) was > 100 µM, the TGI (OVCAR-8 ovarian) was > 100 µM and the TGI (UO-31 renal) was > 100 µM. The TGI (HCT-15 colon) was > 100 µM, the TGI (HOP-18 NSCLC) was > 100 µM and the TGI (SN12C renal) was > 100 µM. For the same compound, the TGI (M14 melanoma) was > 100 µM, the TGI (SNB-19 CNS) was > 100 µM and the TGI (EKVX NSCLC) was > 100 µM. For the same compound, the TGI (ACHN renal) was > 100 µM, the TGI (SNB-78 CNS) was > 100 µM and the TGI (COLO 205 colon) was > 10 µM. The TGI (HCT-116 colon) was > 100 µM, the TGI (NCI-H522 lung) was > 100 µM and the TGI (U251 CNS) was > 100 µM.
In the case of `O=C(Nc1ccc(Cl)cc1Cl)c1c/c(=N\O)c2ccc(O)cc2o1`, the TGI (M19-MEL melanoma) was > 100 µM, the TGI (MOLT-4 leukemia) was > 100 µM and the TGI (CAKI-1 renal) was > 100 µM. The TGI (HT29 colon) was > 100 µM, the TGI (SR leukemia) was > 100 µM and the TGI (SNB-75 CNS) was > 100 µM. For the same compound, the TGI (HL-60(TB) leukemia) was > 100 µM, the TGI (OVCAR-3 ovarian) was > 100 µM and the TGI (SK-MEL-5 melanoma) was > 100 µM. For the same compound, the TGI (KM20L2 colon) was > 100 µM, the TGI (MALME-3M melanoma) was > 100 µM and the TGI (HOP-62 NSCLC) was > 100 µM. For the same compound, the TGI (TK-10 renal) was > 100 µM, the TGI (UACC-62 melanoma) was > 100 µM and the TGI (A549 NSCLC) was > 100 µM. For the same compound, the TGI (HOP-92 NSCLC) was > 100 µM, the TGI (NCI-H23 lung) was > 100 µM and the TGI (A498 renal) was > 100 µM. For the same compound, the TGI (IGROV1 ovarian) was > 100 µM, the TGI (K-562 leukemia) was > 100 µM and the TGI (786-0 renal) was > 100 µM. For the same compound, the TGI (SF-539 CNS) was > 100 µM, the TGI (CCRF-CEM leukemia) was > 100 µM and the TGI (NCI-H226 lung) was > 100 µM. For the same compound, the TGI (SK-OV-3 ovarian) was > 100 µM, the TGI (LOX IMVI melanoma) was > 100 µM and the TGI (LXFL 529 NSCLC) was > 100 µM. The TGI (RXF-631 renal) was > 100 µM, the TGI (KM12 colon) was > 100 µM and the TGI (SF-268 CNS) was > 100 µM. For the same compound, the TGI (NCI-H460 lung) was > 100 µM, the TGI (RXF 393 renal) was > 100 µM and the TGI (DMS 114 small cell lung) was > 100 µM. The TGI (SF-295 CNS) was > 100 µM, the TGI (SW-620 colon) was > 100 µM and the TGI (RPMI-8226 leukemia) was > 100 µM. For the same compound, the TGI (OVCAR-5 ovarian) was > 100 µM, the TGI (UACC-257 melanoma) was > 100 µM and the TGI (SK-MEL-28 melanoma) was > 100 µM. The TGI (OVCAR-4 ovarian) was > 100 µM, the TGI (OVCAR-8 ovarian) was > 100 µM and the TGI (UO-31 renal) was > 100 µM. The TGI (HCT-15 colon) was > 100 µM, the TGI (HOP-18 NSCLC) was > 100 µM and the TGI (DLD-1 colon) was > 100 µM. The TGI (SN12C renal) was > 100 µM, the TGI (M14 melanoma) was > 100 µM and the TGI (SNB-19 CNS) was > 100 µM. The TGI (ACHN renal) was > 100 µM, the TGI (SNB-78 CNS) was > 100 µM and the TGI (COLO 205 colon) was > 100 µM. For the same compound, the TGI (HCT-116 colon) was > 100 µM, the TGI (NCI-H522 lung) was > 100 µM and the TGI (U251 CNS) was > 100 µM.
